Measurements from patent publication US20240358693A1, “METHODS OF TREATING PAIN” (Aisa Pharma, Inc., priority 2023, published 2024).

Test system: participants with SSc-RP
Assay: Scleroderma Health Assessment Questionnaire (SHAQ): disability indices and visual analog scales
Format: in vivo, human
Excerpt: The standard, validated, patient reported outcome measures tool for SSc patients, the Scleroderma Health Assessment Questionnaire (SHAQ), will be used to assess the participant qualify of life. Details are attached in the Appendix. The participant quality of life will be scored, and a disability index calculated for each questionnaire completed by the patient at Screening and each in-clinic visit. The absolute change in participant quality of life from baseline to the end of each dosing period will be calculated similar to frequency data as before.
The SHAQ includes a Raynaud's VAS, which will be reported at screening and each in-clinic visit. The absolute change in Raynaud-VAS, assessed by the participants response to the SHAQ question ‘In the past 7 days, how much have your Raynaud's interfered with your daily activities?’ at baseline and the end of each dosing period will be calculated similar to frequency data as before.
The SHAQ is used to calculate a Disability Index to assess the participant qualify of life. The eight categories assessed by the Disability Index are 1) dressing and grooming, 2) arising, 3) eating, 4) walking, 5) hygiene, 6) reach, 7) grip, and 8) common daily activities. For each of these categories, patients report the amount of difficulty they have in performing two or three specific activities.
There are four possible responses for the Disability Index questions: • Without any difficulty=0 • With some difficulty=1 • With much difficulty=2 • Unable to do=3. • The highest score reported by the patient for any component question of the eight categories determines the score for that category. • If a component question is left blank or the response is too ambiguous to assign a score, then the score for that category is determined by the remaining completed question(s). • If all component questions are blank or if more than one answer is given, then follow up with the respondent is required. • If the respondent's mark is between the response columns, then move it to the closest one. If it's directly between the two, move it to the higher one.
Each of the disability items on the SHAQ has a companion aids/devices variable that is used to record what type(s) of assistance, if any, the participant uses for his/her usual activities. These variables (see below) are coded as follows: • 0=No assistance is needed. • 1=A special device is used by the patient in his/her usual activities. • 2=The patient usually needs help from another person. • 3=The patient usually needs BOTH a special device AND help from another person.
The scoring variables and scoring rules permit the computation of two disability indices, the Standard Disability Index and the Alternative Disability Index.
This question results in a new set of category scores that are computed by adjusting the score for each category, if necessary, based on the patient's use of an aid or device or assistance for that category. If either devices and/or help from another person are checked for a category, the score is set to “2”, unless the score is already “3” (i.e., scores of “0” or “1” are increased to “2”). For example, if the highest score for the dressing category is “1”, and the patient says they use a device for dressing, the computed category score would be “2”. The sum of the computed categories scores is then calculated and divided by the number of categories answered. This gives a score in the 0 to 3 range.
The aid and device variables are not used to calculate the alternative disability index; it is calculated by adding the scores for each of the categories and dividing by the number of categories answered. This gives a score in the 0 to 3 range.
The standard, validated, patient reported outcome measures tool for SSc patients, the SHAQ, was collected at the time points specified in the study schedules (FIG. 2 and FIGS. 4A and 4B) to assess the participant's quality of life. The SHAQ included a Raynaud's VAS that will also be reported separately.

[1] = Baseline, Cilnidipine 20 mg (N = 4), Patients with Diagnosis of SSc, PP Population Part A
[2] = Baseline, Pooled Cilnidipine 10 mg and Cilnidipine 10 mg + Tadalafil 5 mg (N = 9), PP Population Part A
[3] = Baseline, Pooled Cilnidipine 20 mg and Cilnidipine 20 mg + Tadalafil 5 mg (N = 8), PP Population Part A
[4] = Baseline, Pooled Cilnidipine (N = 8), PP Population Part A
[5] = Cilnidipine 10 mg (N = 3), patients with diagnosis of SSc, sensitivity analysis, Modified ITT, Part A
[6] = Cilnidipine 10 mg (N = 4), Modified ITT, Part A
[7] = Cilnidipine 10 mg, Day 12, PP Population Part A, SSc patients

## COCCOC(=O)C1=C(C)NC(C)=C(C(=O)OC/C=C/c2ccccc2)C1c1cccc([N+](=O)[O-])c1 (stereo not shown) [Cilnidipine, cilnidipine]
Baseline, Cilnidipine 10 mg (N = 4), Patients with Diagnosis of SSc, PP Population Part A
  SHAQ Standard Disability Index, Median: 0.563
[1]
  SHAQ Alternative Disability Index, Mean: 0.219
  SHAQ Alternative Disability Index, Median: 0.250
  SHAQ Standard Disability Index, Mean: 0.344
  SHAQ Standard Disability Index, Median: 0.375
[2]
  SHAQ Visual Analogue Scale - Breathing Problems, Mean: 1.511
  SHAQ Visual Analogue Scale - Breathing Problems, Median: 0.800
  SHAQ Visual Analogue Scale - Finger Ulcers, Mean: 0.656
  SHAQ Visual Analogue Scale - Finger Ulcers, Median: 0.200
  SHAQ Visual Analogue Scale - Intestinal Problems, Mean: 2.444
  SHAQ Visual Analogue Scale - Intestinal Problems, Median: 1.100
  SHAQ Visual Analogue Scale - Overall Disease Severity, Mean: 3.044
  SHAQ Visual Analogue Scale - Overall Disease Severity, Median: 1.900
  SHAQ Visual Analogue Scale - Pain, Mean: 3.278
  SHAQ Visual Analogue Scale - Pain, Median: 3.100
  SHAQ Visual Analogue Scale - Raynaud's, Mean: 2.733
  SHAQ Visual Analogue Scale - Raynaud's, Median: 1.400
[3]
  SHAQ Visual Analogue Scale - Breathing Problems, Mean: 1.175
  SHAQ Visual Analogue Scale - Breathing Problems, Median: 1.000
  SHAQ Visual Analogue Scale - Finger Ulcers, Mean: 1.986
  SHAQ Visual Analogue Scale - Finger Ulcers, Median: 0.100
  SHAQ Visual Analogue Scale - Intestinal Problems, Mean: 0.813
  SHAQ Visual Analogue Scale - Intestinal Problems, Median: 0.650
  SHAQ Visual Analogue Scale - Overall Disease Severity, Mean: 3.363
  SHAQ Visual Analogue Scale - Overall Disease Severity, Median: 2.950
  SHAQ Visual Analogue Scale - Pain, Mean: 2.800
  SHAQ Visual Analogue Scale - Pain, Median: 2.900
  SHAQ Visual Analogue Scale - Raynaud's, Mean: 2.700
  SHAQ Visual Analogue Scale - Raynaud's, Median: 1.700
[4]
  SHAQ Visual Analogue Scale - Breathing Problems, Mean: 1.600
  SHAQ Visual Analogue Scale - Breathing Problems, Median: 0.700
  SHAQ Visual Analogue Scale - Finger Ulcers, Mean: 1.171
  SHAQ Visual Analogue Scale - Finger Ulcers, Median: 0.300
  SHAQ Visual Analogue Scale - Intestinal Problems, Mean: 1.838
  SHAQ Visual Analogue Scale - Intestinal Problems, Median: 0.650
  SHAQ Visual Analogue Scale - Overall Disease Severity, Mean: 2.925
  SHAQ Visual Analogue Scale - Overall Disease Severity, Median: 2.950
  SHAQ Visual Analogue Scale - Pain, Mean: 2.250
  SHAQ Visual Analogue Scale - Pain, Median: 2.150
  SHAQ Visual Analogue Scale - Raynaud's, Mean: 2.338
  SHAQ Visual Analogue Scale - Raynaud's, Median: 1.800
[5]
  SHAQ Standard Disability Index: Baseline, Mean: 0.875
  SHAQ Standard Disability Index: Baseline, Median: 1.125
  SHAQ Standard Disability Index: Change from Baseline, Mean: 0.000
  SHAQ Standard Disability Index: Change from Baseline, Median: 0.000
  SHAQ Standard Disability Index: Day 12, Mean: 0.875
  SHAQ Standard Disability Index: Day 12, Median: 1.125
  SHAQ Standard Disability Index: Percent Change from Baseline, Mean: 0.00%
  SHAQ Standard Disability Index: Percent Change from Baseline, Median: 0.00%
[6]
  SHAQ Overall Severity: Baseline, Mean: 2.725
  SHAQ Overall Severity: Baseline, Median: 1.900
  SHAQ Overall Severity: Change from Baseline, Mean: −0.900
  SHAQ Overall Severity: Change from Baseline, Median: −0.950
  SHAQ Overall Severity: Day 12, Mean: 1.825
  SHAQ Overall Severity: Day 12, Median: 1.050
  SHAQ Overall Severity: Percent Change from Baseline, Mean: −56.96%
  SHAQ Overall Severity: Percent Change from Baseline, Median: −44.12%
[7]
  SHAQ Visual Analogue Scale - Breathing Problems, Change from Baseline, Mean: −0.300
  SHAQ Visual Analogue Scale - Breathing Problems, Change from Baseline, Median: 0.000
  SHAQ Visual Analogue Scale - Breathing Problems, Percent Change from Baseline, Mean: −16.00%
  SHAQ Visual Analogue Scale - Breathing Problems, Percent Change from Baseline, Median: −16.00%
